Test results as given in patent EP0042596B1, “Novel adenine nucleoside derivatives, their preparation and pharmaceutical compositions containing them” (REGENTS OF THE UNIVERSITY OF MINNESOTA, priority 1980, dated 1981).
Values after ≈ are worked out from the molar mass of the structure shown.

Tests used:
[1] = test system: herpes simplex virus type 2; experiment: Genital herpes infection in female guinea pigs, suppression of lesion development (intravaginal agarose gel treatment); type: in vivo; details: for animals with lesions: 5% vidarabine formulation in 0.8% agarose gel
Method: The antiviral efficacy of these compounds in the treatment of genital infections in female guinea pigs was determined, the infecting virus being herpes simplex virus […]. The in vivo efficacy was measured in terms of the effect of these compounds in suppressing lesion development induced by the infecting virus. The incidence of lesions for virus-infected animals treated with the test compound was measured and compared with the results obtained for virus-infected control animals treated with placebo, or with the results obtained for untreated virus-infected animals. In the control group of animals small lesions usually appeared 3 to 4 days following infection, the virus-induced lesions reaching a maximum severity around 7 days postinfection this peak being followed by scab formation and then healing. In each case the test animals were infected by intravaginal inoculation with the herpes simplex virus type 2 in 0.1 ml of cell culture medium. 0.1 ml of a 0.8% agarose gel containing the test compound at the stated concentration was then administered intravaginally, treatment commencing (unless otherwise stated) 3 hours postinfection and the test compound being administered 3 times daily for 7 days. […] For the results given in Table 2, drug administration was commenced 6 hours postinfection and the test compound administered three times daily for 5 days.

[2] = i.p.
[3] = Solubility in water at 37°C; type: physicochemical; details: at 37°C in water

Nc1ncnc2c1ncn2[C@@H]1C[C@H](CO)[C@@H](O)[C@@H]1O (racemic) [cyclaradine, 9 - [2α,3β-dihydroxy - 4α - (hydroxymethyl)cyclopent - 1 a - yl] - adenine]
test animals had lesions ([1]; day 7 postinfection, concentration 3%): 100%
test animals had lesions ([1]; day 7 postinfection, concentration 10%): 100%
lethality ([2]; dose of 900 mg/kg): not lethal
solubility [3]: 1 mg/mL (≈ 3.77 mM)

Nc1ncnc2c1ncn2[C@@H]1O[C@H](CO)[C@@H](O)[C@@H]1O [vidarabine, 9-(β-D-arabinofuranosyl)-adenine]
animals with lesions ([1]; day 4 postinfection): 50%
animals with lesions ([1]; day 7 postinfection): 80%

COCC(=O)OC[C@H]1O[C@@H](n2cnc3c(N)ncnc32)[C@@H](O)[C@@H]1O [Compound A, 9-s-D-Arabinofuranosyladenine-5'-methoxyacetate]
lesion formation ([1]; concentration of 15% in 0.8% agarose gel, intravaginal, start 3 hours postinfection, 3 times daily for 7 days): completely suppressed lesion formation

COCC(=O)OC[C@H]1C[C@@H](n2cnc3c(N)ncnc32)[C@@H](O)[C@@H]1O (racemic) [Compound B, 9-[2α,3β-dihydroxy-4α(methoxyacetoxymethyl)cyclopent-1 α-yl]adenine]
animals developed virus-induced lesions ([1]; administration commenced 6 hours postinfection, three times daily for 5 days, controls 60-90%): 33%
signs of toxicity ([2]; highest dose tested of 750 mg/kg): no signs of toxicity at all
solubility [3]: 75 mg/mL (≈ 222 mM)
